For assay [1], the target named is T1, human CRF2a receptor (Homo sapiens, UniProt Q13324).
T1 construct: expressed in transfected cells; host or cells: TeloHEAC cells
T1 sequence (Q13324 1-411): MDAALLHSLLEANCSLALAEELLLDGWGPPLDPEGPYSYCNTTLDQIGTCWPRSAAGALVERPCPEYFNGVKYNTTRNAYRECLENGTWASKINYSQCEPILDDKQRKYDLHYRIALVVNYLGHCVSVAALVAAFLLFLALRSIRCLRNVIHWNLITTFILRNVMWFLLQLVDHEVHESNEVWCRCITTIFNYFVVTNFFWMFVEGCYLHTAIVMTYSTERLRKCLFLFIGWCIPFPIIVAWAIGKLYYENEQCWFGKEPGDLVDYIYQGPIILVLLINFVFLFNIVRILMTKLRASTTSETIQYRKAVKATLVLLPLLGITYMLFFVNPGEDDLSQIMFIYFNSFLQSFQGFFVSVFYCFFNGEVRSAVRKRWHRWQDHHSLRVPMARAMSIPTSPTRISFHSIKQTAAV
Nature of the assay: Activity at human CRF2a receptor, cAMP functional assay in TeloHEAC cells. It is filed as cell-based. The note with it: TeloHEAC cells stably expressing human CRF2a receptor, relative to urocortin 2 (100 nM = 100%). The gist of the method:
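TeloHEAC cells stably expressing human CRF2a (10000 cells/well) were treated with 16-point 1:2 compound dilutions in HBSS/20 mM HEPES with IBMX for 30 min at 37° C. cAMP was read by HTRF (665/620 nm ratio). EC50 was the concentration giving 50% activation, with 100 nM urocortin 2 set as 100%.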

Assay [2] addresses T2, CFR1R receptor (Homo sapiens, UniProt P34998).
T2 construct: host or cells: CHO-K1 (clone 2)
T2 sequence (P34998 24-415): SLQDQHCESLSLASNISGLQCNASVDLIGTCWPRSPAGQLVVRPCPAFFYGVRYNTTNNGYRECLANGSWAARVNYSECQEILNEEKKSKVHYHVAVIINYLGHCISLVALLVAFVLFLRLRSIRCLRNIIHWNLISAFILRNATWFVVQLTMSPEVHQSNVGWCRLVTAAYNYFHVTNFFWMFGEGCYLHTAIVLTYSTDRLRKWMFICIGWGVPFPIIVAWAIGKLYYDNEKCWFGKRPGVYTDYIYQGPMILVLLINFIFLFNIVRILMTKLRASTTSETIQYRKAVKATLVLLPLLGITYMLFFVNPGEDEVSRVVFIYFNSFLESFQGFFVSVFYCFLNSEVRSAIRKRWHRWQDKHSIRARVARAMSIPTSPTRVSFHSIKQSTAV
Nature of the assay: Activity at anti-target CFR1R receptor, cAMP assay in CRF1R-overexpression CHO-K1 cells. The format is cell-based. The settings on record: 100% = Sauvagine at 100 nM; for EC50: cAMP. The method in brief:
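Clone 2 cells were cultured in F12 (Hams)/10% FBS/400 μg/ml G418 at 37° C./5% CO2, frozen in medium with 10% DMSO, and thawed vials used. The protocol followed the TeloHAEC procedure, with 4000 cells/well final and Sauvagine at 100 nM defining 100% activation.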

*1 amine or outer side, *2 acyl side, *3 side chain or, on linkers, in order; H or OH if unused. Where a SMILES comes first, the peptide text is derived from it. Side-chain parts run from the residue outwards. [ ]: non-standard residue; d: D form. The star is where a group is joined. C18 diacid = O=C(O)CCCCCCCCCCCCCCCCC(=O)*; C16 diacid = O=C(O)CCCCCCCCCCCCCCC(=O)*; γGlu = O=C(O)[C@H](CCC(=O)[*:2])N[*:1]; C12 diacid = O=C(O)CCCCCCCCCCC(=O)*; NMeI = CC[C@H](C)[C@H](NC)C(=O)O; αMeL = CC(C)C[C@](C)(N)C(=O)O; NMeV = CN[C@H](C(=O)O)C(C)C; Api = NC1(C(=O)O)CCNCC1; Aib = CC(C)(N)C(=O)O

The EC50 is the midpoint of the concentration-response curve. A high value points to weaker potency.

As for `CC[C@H](C)[C@H](NC)C(=O)N[C@H](C(=O)N[C@@H](CC(C)C)C(=O)N[C@@H](CO)C(=O)N[C@@H](CC(C)C)C(=O)N[C@@H](CC(=O)O)C(=O)N[C@@H](C(=O)N1CCC[C@H]1C(=O)N[C@H](C(=O)N[C@@H](CCCCN)C(=O)N[C@@](C)(CC(C)C)C(=O)N[C@@H](CCCCNC(=O)CC[C@H](NC(=O)CCCCCCCCCCCCCCC(=O)O)C(=O)O)C(=O)N[C@@H](CCCCN)C(=O)N[C@H](C(=O)N[C@@H](CC(C)C)C(=O)N[C@@H](CC(C)C)C(=O)N[C@@H](CCC(=O)O)C(=O)N[C@@H](CCC(N)=O)C(=O)N[C@@H](CCC(=O)O)C(=O)N[C@@H](CCCCN)C(=O)N[C@@H](CCC(N)=O)C(=O)N[C@@H](CCCCN)C(=O)N[C@@H](CCCCN)C(=O)N[C@@H](CCC(N)=O)C(=O)N[C@@H](CCCNC(=N)N)C(=O)N[C@@H](CCC(=O)O)C(=O)N[C@@H](CCC(N)=O)C(=O)N[C@@H](C)C(=O)N[C@@H](CCC(=O)O)C(=O)N[C@H](C(=O)N[C@@H](CC(N)=O)C(=O)N[C@H](C(=O)N[C@@H](CCC(N)=O)C(=O)N[C@H](C(=O)N[C@@H](CC(C)C)C(=O)N[C@@H](C)C(=O)N[C@@H](CCC(N)=O)C(=O)N[C@H](C(N)=O)C(C)C)[C@@H](C)CC)C(C)C)[C@@H](C)O)[C@@H](C)CC)[C@@H](C)CC)C(C)C)C(C)C` [compound 67] (H-[NMeI]VLSLD[dV]PIK[αMeL]K([γGlu-C16 diacid])KILLEQEKQKKQREQAETNVQILAQV-NH2), the EC50 in assay [1] is 0.34 nM; in assay [2], over 250 nM. In addition, in assay [2], the “Emax (% I)” value stood at 8 % I.

`CC[C@H](C)[C@H](NC)C(=O)N[C@H](C(=O)N[C@@H](CC(C)C)C(=O)N[C@@H](CO)C(=O)N[C@@H](CC(C)C)C(=O)N[C@@H](CC(=O)O)C(=O)N[C@@H](C(=O)N1CCC[C@H]1C(=O)N[C@H](C(=O)N[C@@H](CCCCN)C(=O)N[C@@H](CC(C)C)C(=O)N[C@@H](CCCCNC(=O)CC[C@H](NC(=O)CCCCCCCCCCCCCCCCC(=O)O)C(=O)O)C(=O)N[C@@H](CCC(N)=O)C(=O)N[C@H](C(=O)N[C@@H](CC(C)C)C(=O)N[C@@H](CC(C)C)C(=O)N[C@@H](CCCCN)C(=O)N[C@@H](CCC(N)=O)C(=O)N[C@@H](CCC(=O)O)C(=O)N[C@@H](CCCNC(=N)N)C(=O)N[C@@H](CCC(N)=O)C(=O)N[C@@H](CCCCN)C(=O)N[C@@H](CCCCN)C(=O)N[C@@H](CCC(N)=O)C(=O)N[C@@H](CCCNC(=N)N)C(=O)N[C@@H](CCC(=O)O)C(=O)N[C@@H](CCC(N)=O)C(=O)N[C@@H](C)C(=O)N[C@@H](CCC(=O)O)C(=O)N[C@@H](CCCCN)C(=O)N[C@@H](CC(N)=O)C(=O)N[C@@H](C)C(=O)N[C@@H](CCC(N)=O)C(=O)N[C@H](C(=O)N[C@@H](CC(C)C)C(=O)N[C@@H](CCC(=O)O)C(=O)N[C@@H](CCC(N)=O)C(=O)N[C@H](C(N)=O)C(C)C)[C@@H](C)CC)[C@@H](C)CC)[C@@H](C)CC)C(C)C)C(C)C` [compound 24] (H-[NMeI]VLSLD[dV]PIKLK([γGlu-C18 diacid])QILLKQERQKKQREQAEKNAQILEQV-NH2) showed an EC50 in assay [1] of 0.04 nM. For the same compound, in assay [2], the “Emax (% I)” value came out at 37 % I and the EC50 was over 250 nM.

In assay [1], `CC[C@H](C)[C@H](NC(C)=O)C(=O)N[C@H](C(=O)N[C@@H](CC(C)C)C(=O)N[C@@H](CO)C(=O)N[C@@H](CC(C)C)C(=O)N[C@@H](CC(=O)O)C(=O)N[C@@H](C(=O)N1CCC[C@H]1C(=O)N[C@H](C(=O)N[C@@H](CCCCN)C(=O)N[C@@H](CC(C)C)C(=O)N[C@@H](CCCCNC(=O)CC[C@H](NC(=O)CCCCCCCCCCC(=O)O)C(=O)O)C(=O)N[C@@H](CCCCN)C(=O)N[C@H](C(=O)N[C@@H](CC(C)C)C(=O)N[C@@H](CC(C)C)C(=O)N[C@@H](CCC(=O)O)C(=O)N[C@@H](CCC(N)=O)C(=O)N[C@@H](CCC(=O)O)C(=O)N[C@@H](CCCCN)C(=O)N[C@@H](CCC(N)=O)C(=O)N[C@@H](CCCCN)C(=O)N[C@@H](CCCCN)C(=O)N[C@@H](CCC(N)=O)C(=O)N[C@@H](CCCNC(=N)N)C(=O)N[C@@H](CCC(=O)O)C(=O)N[C@@H](CCC(N)=O)C(=O)N[C@@H](C)C(=O)N[C@@H](CCC(=O)O)C(=O)N[C@H](C(=O)N[C@@H](CC(N)=O)C(=O)NC(C)(C)C(=O)N[C@@H](CCC(N)=O)C(=O)N[C@H](C(=O)N[C@@H](CC(C)C)C(=O)N[C@@H](C)C(=O)N[C@@H](CCC(N)=O)C(=O)N[C@H](C(N)=O)C(C)C)[C@@H](C)CC)[C@@H](C)O)[C@@H](C)CC)[C@@H](C)CC)C(C)C)C(C)C` [compound 182] (Ac-IVLSLD[dV]PIKLK([γGlu-C12 diacid])KILLEQEKQKKQREQAETN[Aib]QILAQV-NH2) had an EC50 of 1.88 nM. In assay [2], the “Emax (% I)” value worked out at 1 % I and the EC50 is over 250 nM.

The compound `CC[C@H](C)[C@H](NC(C)=O)C(=O)N[C@H](C(=O)N[C@@H](CC(C)C)C(=O)N[C@@H](CO)C(=O)N[C@@H](CC(C)C)C(=O)N[C@@H](CC(=O)O)C(=O)N[C@@H](C(=O)N1CCC[C@H]1C(=O)N[C@H](C(=O)N[C@@H](CCCCN)C(=O)N[C@@H](CC(C)C)C(=O)N[C@@H](CCCCNC(=O)CC[C@H](NC(=O)CCCCCCCCCCC(=O)O)C(=O)O)C(=O)N[C@@H](CCCCN)C(=O)N[C@H](C(=O)N[C@@H](CC(C)C)C(=O)N[C@@H](CC(C)C)C(=O)N[C@@H](CCC(=O)O)C(=O)N[C@@H](CCC(N)=O)C(=O)N[C@@H](CCC(=O)O)C(=O)N[C@@H](CCCCN)C(=O)N[C@@H](CCC(N)=O)C(=O)N[C@@H](CCCCN)C(=O)NC(C)(C)C(=O)N[C@@H](CCC(N)=O)C(=O)N[C@@H](CCCNC(=N)N)C(=O)N[C@@H](CCC(=O)O)C(=O)N[C@@H](CCC(N)=O)C(=O)N[C@@H](C)C(=O)N[C@@H](CCC(=O)O)C(=O)N[C@H](C(=O)N[C@@H](CC(N)=O)C(=O)NC1(C(=O)N[C@@H](CCC(N)=O)C(=O)N[C@H](C(=O)N[C@@H](CC(C)C)C(=O)N[C@@H](C)C(=O)N[C@@H](CCC(N)=O)C(=O)N[C@H](C(N)=O)C(C)C)[C@@H](C)CC)CCNCC1)[C@@H](C)O)[C@@H](C)CC)[C@@H](C)CC)C(C)C)C(C)C` [compound 184] (Ac-IVLSLD[dV]PIKLK([γGlu-C12 diacid])KILLEQEKQK[Aib]QREQAETN[Api]QILAQV-NH2) came in with an EC50 in assay [1] of 4.25 nM. In assay [2], the “Emax (% I)” value stood at 3 % I and the EC50 is over 250 nM.

With `CC[C@H](C)[C@H](NC(=O)[C@H](CCC(N)=O)NC(=O)C(C)(C)NC(=O)[C@H](CC(N)=O)NC(=O)[C@@H](NC(=O)[C@H](CCC(=O)O)NC(=O)[C@H](C)NC(=O)[C@H](CCC(N)=O)NC(=O)[C@H](CCC(=O)O)NC(=O)[C@H](CCCNC(=N)N)NC(=O)[C@H](CCC(N)=O)NC(=O)[C@H](CCCCN)NC(=O)[C@H](CCCCN)NC(=O)[C@H](CCC(N)=O)NC(=O)[C@H](CCCCN)NC(=O)[C@H](CCC(=O)O)NC(=O)[C@H](CCC(N)=O)NC(=O)[C@H](CCC(=O)O)NC(=O)[C@H](CC(C)C)NC(=O)[C@H](CC(C)C)NC(=O)[C@@H](NC(=O)[C@H](CCCCN)NC(=O)[C@H](CCCCNC(=O)CC[C@H](NC(=O)CCCCCCCCCCCCCCC(=O)O)C(=O)O)NC(=O)[C@H](CC(C)C)NC(=O)[C@H](CCCCN)NC(=O)[C@@H](NC(=O)[C@@H]1CCCN1C(=O)[C@H](NC(=O)[C@H](CC(=O)O)NC(=O)[C@H](CC(C)C)NC(=O)[C@H](CO)NC(=O)[C@H](CC(C)C)NC(=O)[C@@H](NC)C(C)C)C(C)C)[C@@H](C)CC)[C@@H](C)CC)[C@@H](C)O)C(=O)N[C@@H](CC(C)C)C(=O)N[C@@H](C)C(=O)N[C@@H](CCC(N)=O)C(=O)N[C@H](C(N)=O)C(C)C` [compound 159] (H-[NMeV]LSLD[dV]PIKLK([γGlu-C16 diacid])KILLEQEKQKKQREQAETN[Aib]QILAQV-NH2), the EC50 in assay [1] came out at 2.97 nM. In addition, in assay [2], the “Emax (% I)” value is 4 % I and the EC50 is over 250 nM.

For the origin of these results see patent US20260001928A1 (CORTERIA PHARMACEUTICALS, priority 2022, published 2026).
